Data on ten compounds can be found in patent US10399961B2, “Heteroarylcarboxamide derivatives as plasma kallikrein inhibitors” (Boehringer Ingelheim International GmbH, priority 2015, dated 2019).

Chain of human Plasma Kallikrein (KLKB1) (P03952 391-638): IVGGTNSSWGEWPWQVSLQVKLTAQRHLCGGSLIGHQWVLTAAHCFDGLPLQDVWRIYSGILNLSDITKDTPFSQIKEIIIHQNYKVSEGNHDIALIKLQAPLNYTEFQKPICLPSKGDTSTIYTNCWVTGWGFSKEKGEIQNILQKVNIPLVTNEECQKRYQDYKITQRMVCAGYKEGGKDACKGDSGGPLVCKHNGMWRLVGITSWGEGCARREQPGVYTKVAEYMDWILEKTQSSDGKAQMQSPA
Chain of human Plasma Kallikrein (KLKB1) (P03952 20-390 partner): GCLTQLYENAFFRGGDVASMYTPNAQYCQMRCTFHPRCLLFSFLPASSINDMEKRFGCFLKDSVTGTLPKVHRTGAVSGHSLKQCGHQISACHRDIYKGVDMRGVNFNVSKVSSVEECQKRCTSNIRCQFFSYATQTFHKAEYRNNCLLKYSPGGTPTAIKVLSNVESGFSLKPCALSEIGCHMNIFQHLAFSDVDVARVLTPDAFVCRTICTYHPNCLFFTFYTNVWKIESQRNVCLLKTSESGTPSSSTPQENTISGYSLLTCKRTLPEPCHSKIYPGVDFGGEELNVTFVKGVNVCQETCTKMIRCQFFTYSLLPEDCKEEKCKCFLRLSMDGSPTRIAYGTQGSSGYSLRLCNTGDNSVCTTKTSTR

This test has as its target human Plasma Kallikrein (KLKB1) (Homo sapiens (Human), UniProt P03952). Description: Inhibition of KLKB1 endpoint assay. The conditions noted are these: fluorogenic substrate H-Pro-Phe-Arg-AMC, 1 hr at Room Temperature, read-out: IC50 measurements for the inhibition of human Plasma Kallikrein (KLKB1). The test is classed as biochemical. The method, then:
The ability of compounds of Formula I to inhibit plasma kallikrein (KLKB1), Factor XIIa (FXIIa), Factor XIa (FXIa), Factor Xa (FXa), Factor IIa (alpha-thrombin; FIIa), plasmin, trypsin, tissue kallikrein 1 (KLK1), Factor VIIa (FVIIa), or FVIIa complexed with Tissue Factor, phospholipids and CaCl2 (FVIIa/TF/PL/CaCl2) was determined using the following biochemical assays in assay buffer (100 mM Tris, 150 mM NaCL, adjusted to a pH of 7.8 with HCl, and containing 0.1% (w/v) BSA and 0.05% (v/v) Tween20) in the presence of 1% (v/v) DMSO:
Subsequently, PPACK II (Calbiochem) was added as a stop solution to achieve a final concentration of 1 μM and fluorescence was measured using an Envision Reader (PerkinElmer) with the wavelength excitation setting of 355 nm and the wavelength emission setting of 460 nm.
In the case of `Cc1ccc2cc(Cn3cc(C(=O)NC4CCCc5nc(N)ccc54)nn3)ccc2n1` (stereo not shown) [Example 1, 1-(2-Methyl-quinolin-6-ylmethyl)-1H-[1,2,3]triazole-4-carboxylic acid (2-amino-5,6,7,8-tetrahydro-quinolin-5-yl)-amide], the IC50 (as a rule, the midpoint of a concentration-inhibition curve) turned out to be 0.9 µM.

As for `Nc1nccc2c1C(NC(=O)c1cn(Cc3ccc(Cn4cccn4)cc3)nn1)CC2` (stereo not shown) [Example 2, 1-(4-Pyrazol-1-ylmethyl-benzyl)-1H-[1,2,3]triazole-4-carboxylic acid (1-amino-6,7-dihydro-5H-[2]pyrindin-7-yl)-amide], the half-maximal inhibitory concentration (IC50) turned out to be 0.6 µM.

For the compound `Nc1ccc2c(n1)CCC2NC(=O)c1cn(Cc2ccc(C(F)c3ccon3)cc2)nn1` (stereo not shown) [Example 3], the IC50 stood at 5.5 µM.

With `Nc1cc2c(cn1)C(NC(=O)c1cn(Cc3ccc(Cn4cccn4)cc3)nn1)CC2` (stereo not shown) [Example 4], the concentration for half-maximal inhibition (IC50) was determined as 0.79 µM.

As to `Nc1ccc2c(n1)CCC2NC(=O)c1cnn(Cc2ccc(Cn3cccn3)cc2)c1` (stereo not shown) [Example 6], the IC50 was determined as 0.032 µM.

Turning to `Cc1ccc2cc(Cn3cc(C(=O)NC4CCc5nc(N)ccc54)nn3)ccc2n1` (stereo not shown) [Example 7], the IC50 was found to be 0.91 µM.

On to `CC(C)(O)c1cccn(Cc2ccc(Cn3cc(C(=O)NC4CCc5nc(N)ccc54)nn3)cc2)c1=O` (stereo not shown) [Example 9], for which the IC50 came to 0.56 µM.

Regarding `C[C@H]1CCN(c2ccc(Cn3cc(C(=O)N[C@@H]4CCc5nc(N)ccc54)c(C(F)(F)F)n3)cn2)C1` [Example 14], the IC50 was found to be 0.04 µM.

As to `Cc1cnn(Cc2ccc(Cn3cc(C(=O)N[C@@H]4CCc5c4ccnc5N)c(C(F)(F)F)n3)cc2)c1` [Example 15], the half-maximal inhibitory concentration (IC50) is 0.001 µM.

With `Cc1cnn(Cc2ccc(Cn3cc(C(=O)N[C@@H]4CCc5nc(N)ccc54)c(C(F)(F)F)n3)cc2)c1` [Example 16], the concentration for half-maximal inhibition (IC50) is 0.018 µM.
